Assay results: US20160045606A1, “PARTIALLY-DENATURED PROTEIN HYDROGELS” (Northwestern University, priority 2014, published 2016)
Entries after “also recorded” stand apart in the source; their conditions may differ.

Assays:
[1] = biological target: N-form albumin (TRP 213 atRA binding site) (Homo sapiens, UniProt P02768); settings: literature estimate (Maiti et al. 2006), TRP 213 site on N-form albumin; cited from earlier work
N-form albumin = N-form albumin (Bos taurus, UniProt P02769); test: atRA binding by tryptophan fluorescence quenching at 340 nm, BSA at pH 7.4; set-up: species or system bovine
Procedure: (§1) All trans retinoic acid (atRA, 82625, Sigma, St. Louis, 206 MO) was added to solutions of BSA with molar ratio concentrations including 0:1, 0.08:1, 0.1:1, 0.13:1, 0.2:1, 0.4:1, 0.8:1, 1.2:1, 1.6:1, and 2:1 (atRA:BSA). A baseline fluorescence intensity of BSA at pH 7.4 and 3.5 measured at 340 nm with excitation at 295 nm was recorded (n=4 for each molar ratio concentration) as reported in the literature (Maiti et al. Int J Biol Macromol. 2006; 38(3-5):197-202; herein incorporated by reference in its entirety) using the plate reader Tecan Safire II (Tecan, Maennedorf, Switzerland). Then, atRA binding to BSA at pH 7.4 and 3.5 was assessed immediately after the addition of atRA at the different molar ratios. For measuring atRA release from hydrogel disks, a higher molar ratio concentration of 8:1 (atRA:BSA) was used when incorporating atRA into BSA precursor solutions before gelation. Precursor solutions were processed as normal to fabricate atRA-loaded PBSA and TBSA hydrogel disks with a final volume of 0.5 mL. Disks were submerged in 10 mL PBS at 37° C. for atRA release studies. Eluates were collected and replaced at 1, 3, 6, 12, 24, 48, 72, 144, and 240 hour sampling times and fluorescence intensity of atRA at 340 nm and BSA at 280 nm was collected with a NanoDrop™ 2000 C Spectrophotometer (ThermoScientific™, Waltham, Mass.).

[2] = tested on: Human aortic smooth muscle cells (HASMC); test: Scratch test migration assay; format: cell-based; settings: cells exposed directly to 25 ng/mL atRA in media, 24 hr scratch wound, serum starved, vs negative control
Procedure: Human aortic smooth muscle cells (HASMC) (Lonza, Basel, Switzerland) (passage 5) were cultured in SmGM-2 media. All cells were cultured at 37° C. in a humidified incubator containing 5% CO2. HASMCs (seeding density 1×10^4 cells/cm2) were seeded onto TCP surfaces and grown until 90% confluent. Cell culture media was changed every 2 days until confluence after which serum-free SmGM-2 media was used to create a nutrient starved environment for 24 hrs. A vertical scratch was made with a sterile 200 uL pipette tip in the confluent HASMC layer, rinsed with warm PBS, and replaced with 1 mL SmGM-2 media. The underside of the dish was marked near the wound area to aid in identification. Wells were randomly placed into 4 groups which received either a 100 uL dose of eluted material from atRA loaded PBSA or TBSA release study at day 10, a 100 uL dose of 24 ng atRA dissolved in PBS, or a control 100 uL of PBS. A light microscope (Nikon Eclipse TE2000-U) was used to capture images using Image Pro 5.0 software (MediaCybernetics, Bethesda, Md.) of the wound area immediately at day 0 and at various times until the control wound closed at 24 hrs. Wound areas were determined using an automated wound area measurement macro with the ImageJ 1.43r software (NIH, Bethesda, Md.). The measurement of migration was determined by subtracting the cell-free area at day 0 from the cell-free area at 24 hrs. […]

F-form albumin = F-form albumin (Bos taurus, UniProt P02769); test: atRA binding by tryptophan fluorescence quenching at 340 nm, BSA at pH 3.5; set-up: species or system bovine; settings: pH 3.5, excitation 295 nm
Procedure: as §1

[3] = In vivo subcutaneous rat model (biocompatibility); set-up: species or system Sprague-Dawley rats; settings: 0.5 mL subcutaneous injection
Procedure: Eight female Sprague-Dawley rats (Harlan Laboratories, Inc.) weighing 150-175 g were used for in vivo biocompatibility testing of the BSA gels. Four rats were randomly assigned into two groups for explant time points at 4 days and 4 weeks for evaluation of the acute and chronic inflammatory response. Animals were anesthetized using the inhalant machine Impact 6 (Vetequip Inc., Pleasanton, Calif.). Isofluorane was administered at a concentration of 2% with an oxygen flow rate of 2 L/min. Following anesthesia; the backs of the animals were shaved and then disinfected with […] followed by alcohol and a second […] wipe. Two incisions of approximately 1.5 cm in length were made at the implantation sites and subcutaneous pockets were created by blunt dissection in each location. 20 wt % Albumin hydrogels 184 (both PBSA and TBSA) were fabricated as described in the methods section 2.1 and were cut into disks (h=0.5 cm, r=0.6 cm) using a sterile biopsy punch. In one location, an acid leached 20 wt % PBSA gel disk was implanted into the subcutaneous pocket far from the incision site. At the other incision site, a 20 wt % TBSA gel disk was implanted. A control saline injection and pH 7.4 (20 wt %) BSA solution was injected into the back of the rat in the two remaining implantation sites. […]

N-form albumin, sequence (P02769 25-607): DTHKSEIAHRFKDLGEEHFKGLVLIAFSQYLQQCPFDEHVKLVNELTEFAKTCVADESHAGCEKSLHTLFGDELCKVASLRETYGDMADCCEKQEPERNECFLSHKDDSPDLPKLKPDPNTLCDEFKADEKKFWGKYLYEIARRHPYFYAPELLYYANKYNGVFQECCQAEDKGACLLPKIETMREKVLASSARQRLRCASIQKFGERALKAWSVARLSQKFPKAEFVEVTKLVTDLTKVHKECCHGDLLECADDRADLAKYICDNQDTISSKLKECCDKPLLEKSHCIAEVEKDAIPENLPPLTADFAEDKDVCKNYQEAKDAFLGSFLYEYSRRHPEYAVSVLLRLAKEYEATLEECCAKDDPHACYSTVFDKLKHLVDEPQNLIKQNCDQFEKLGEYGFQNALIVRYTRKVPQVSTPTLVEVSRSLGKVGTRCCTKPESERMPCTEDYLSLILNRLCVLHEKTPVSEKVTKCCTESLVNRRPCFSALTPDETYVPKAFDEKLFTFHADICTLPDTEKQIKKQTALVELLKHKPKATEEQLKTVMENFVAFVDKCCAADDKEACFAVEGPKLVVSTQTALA
N-form albumin (TRP 213 atRA binding site), sequence (P02768 25-609): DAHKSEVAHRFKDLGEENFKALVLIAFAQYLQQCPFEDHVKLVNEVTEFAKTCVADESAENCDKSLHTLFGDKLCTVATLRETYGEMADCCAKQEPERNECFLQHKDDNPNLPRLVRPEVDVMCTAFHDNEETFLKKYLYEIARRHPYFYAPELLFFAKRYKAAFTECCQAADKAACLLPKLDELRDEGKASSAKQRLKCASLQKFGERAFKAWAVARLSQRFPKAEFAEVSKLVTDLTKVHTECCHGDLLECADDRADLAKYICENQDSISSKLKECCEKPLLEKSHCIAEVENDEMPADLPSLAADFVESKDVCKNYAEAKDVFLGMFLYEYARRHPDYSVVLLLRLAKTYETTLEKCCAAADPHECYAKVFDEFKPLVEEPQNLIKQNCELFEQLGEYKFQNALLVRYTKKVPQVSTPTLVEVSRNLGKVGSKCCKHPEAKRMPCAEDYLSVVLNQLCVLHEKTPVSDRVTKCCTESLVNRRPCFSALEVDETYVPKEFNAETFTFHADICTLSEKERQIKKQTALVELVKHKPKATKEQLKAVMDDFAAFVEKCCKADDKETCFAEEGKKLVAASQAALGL
F-form albumin, sequence (P02769 25-607): as the sequence (P02769 25-607) above

tryptophan fluorescence signal at 340 nm upon addition of atRA (N-form albumin; N-form albumin, pH 7.4, excitation 295 nm) | tryptophan fluorescence signal at 340 nm upon addition of atRA (F-form albumin) | Compound | binding energy [1] [kcal/mol] | fluorescence quenching as a fraction of the initial fluorescence signal (N-form albumin; N-form albumin compared with F-form albumin) | HASMC migration [2] | inflammatory response ([3]; 4 weeks) | inflammatory response (number of cells in the subcutaneous pocket) ([3]; 4 days, compared to saline control)
rapidly quenched | rapidly quenched | CC1=C(/C=C/C(C)=C/C=C/C(C)=C/C(=O)O)C(C)(C)CCC1 [atRA, All trans retinoic acid] | -7.58 | greater fluorescence quenching than F-form albumin | inhibited; also recorded: significant (p<0.05) reduction in cell migration | – | –
– | – | BSA solution: control 20 wt % bovine serum albumin solution at pH 7.4, injected subcutaneously | – | – | – | decreased significantly | increased general inflammatory response
